The results in this text go back to ChEMBL document CHEMBL1135238, “Antibody-catalyzed cleavage of the D-Ala-D-Lac depsipeptide: an immunological approach to the problem of vancomycin resistance” (Bioorg Med Chem Lett, 2002).

Each structure is given as a SMILES string. Square brackets hold non-standard residues; d marks the D form. Peptide text beside a SMILES is read from it. Where only a bound is given, the exact number is not on record here.

The nature of test [1]: Kcat value was determined.
A short description of test [2]: inhibitory activity of compound using pentapeptide cell-wall peptidoglycan (PG) substrates.
Test [3] is described as follows: Ratio of Kcat to Km was determined.
The nature of test [4]: Ratio of Kcat to Kuncat was determined.
The nature of test [5]: Km value was determined.

The term Ki denotes the equilibrium dissociation constant of an inhibitor or competing ligand from its target. In general, Km refers to the concentration of substrate that gives half-maximal velocity.

Consider `CC(=O)NCCCC[C@H](NC(=O)CCNC(=O)CCCC(=O)ON1C(=O)CCC1=O)C(=O)N[C@H](C)P(=O)(O)O[C@H](C)C(=O)O`, for which, in test [1], the k cat was 3.33e-05 s⁻¹. For the same compound, the Ki in test [2] was less than 0.16 mM. Moreover, the figures for the Ratio in test [3] and in test [4] were 0.921 and 530, respectively. For the same compound, the Km in test [5] turned out to be 2170 µM.

Compound `CC(=O)NCCCC[C@H](NC(C)=O)C(=O)N[C@H](C)C(=O)N[C@H](C)C(=O)O` (Ac-Lys(Ac)-[dA]-[dA]-OH) gave a Ki in test [2] of 13 mM.
